US10526323B2, “Indazole and azaindazole substituted compounds as mGluR4 allosteric potentiators, compositions, and methods of treating neurological dysfunction” (Vanderbilt University, priority 2015, dated 2020)

Target: mGluR4 (UniProt Q14833)
Assay: mGluR4 potentiation assay: increase in response to an EC20 concentration of agonist (species not given)
Format: cell-based
Settings: EC50 for potentiation of mGluR4; table does not state human or rat
Experimental: The disclosed compounds and compositions can be evaluated for their ability to act as a potentiator of metabotropic glutamate receptor activity, in particular mGluR4 activity, by any suitable known methodology known in the art. For example, Chinese Hamster Ovary (CHO) cells transfected with human mGluR4 or […] co-transfected with rat mGluR4 and the G-protein regulated Inwardly Rectifying Potassium channel (GIRK) were plated in clear bottom assay plates for assay in a Hamamatsu FDSS Fluorometric Plate Reader. The cells were loaded with either a Ca2+-sensitive fluorescent dye or the thallium responsive dye and the plates were washed and placed into a suitable kinetic plate reader. For human mGluR4 assays, a fluorescence baseline was established for 3-5 seconds, the disclosed compounds were then added to the cells, and the response in cells was measured. Approximately two and a half minutes later, a concentration of mGluR4 orthosteric agonist (e.g. glutamate or L-AP4) eliciting approximately 20% (EC20) of the maximal agonist response was added to the cells, and the response was measured. Two minutes later, a concentration of mGluR4 agonist (e.g. glutamate or L-AP4) eliciting 80% (EC80) of the maximal agonist response was added to the cells, and the response was measured. For rat mGluR4/GIRK experiments, a baseline was established for approximately five seconds, disclosed compounds were added, and either an EC20 or EC80 concentration of agonist was added approximately two and one half minutes later. Potentiation of the agonist response of mGluR4 by the disclosed compounds was observed as an increase in response to the EC20 concentration of agonist in the presence of compound compared to the response to agonist in the absence of compound. Similarly, antagonism of the agonist response of mGluR4 by the disclosed compounds was observed as a decrease in response to the EC80 concentration of agonist in the presence of compound compared to the response to agonist in the absence of compound.
The above described assay operated in two modes. In the first mode, a range of concentrations of the disclosed compounds are added to cells, followed by a single fixed concentration of agonist. If the compound acts as a potentiator, an EC50 value for potentiation and a maximum extent of potentiation by the compound at this concentration of agonist is determined by non-linear curve fitting. If the compound acts as a noncompetitive antagonist, an IC50 value is determined by non-linear curve fitting. In the second mode, several fixed concentrations of the disclosed compounds are added to various wells on a plate, followed by a range in concentrations of agonist for each concentration of disclosed compound. The EC50 values for the agonist at each concentration of compound are determined by non-linear curve fitting. A decrease in the EC50 value of the agonist with increasing concentrations of the sample compound (a leftward shift of the agonist concentration-response curve) is an indication of the degree of mGluR4 potentiation at a given concentration of the sample compound. A decrease in the maximal response of the agonist with increasing concentrations of the sample compounds, with or without a rightward shift in agonist potency, is an indication of the degree of noncompetitive antagonism at mGluR4. The second mode also indicates whether the sample compounds also affect the maximum response to mGluR4 to agonists.
These compounds are positive allosteric modulators (potentiators) of human and rat mGluR4 and were selective for mGluR4 compared to the other seven subtypes of metabotropic glutamate receptors.

Row | Structure (SMILES) | EC50
1 | Cn1nc(C(=O)N2CCC(S(C)(=O)=O)C2)c2ccc(Nc3n[nH]c4cccnc34)cc21 (stereo not drawn) [Example 170, [1-methyl-6-(1H-pyrazolo[4,3-b]pyridin-3-ylamino)indazol-3-yl]-(3-methylsulfonylpyrrolidin-1-yl)methanone] | 2340 nM
2 | Cc1cc(COc2nn(C)c3cc(Nc4n[nH]c5cccnc45)ccc23)on1 [Example 45, N-(1-methyl-3-((3-methylisoxazol-5-yl)methoxy)-1H-indazol-6-yl)-1H-pyrazolo[4,3-b]pyridin-3-amine] | 104 nM
3 | Cn1nc(C(=O)NC2CC(F)C2)c2ccc(Nc3n[nH]c4cccnc34)cc21 (stereo not drawn) [Example 175, N-(3-fluorocyclobutyl)-1-methyl-6-(1H-pyrazolo[4,3-b]pyridin-3-ylamino)indazole-3-carboxamide] | 794 nM
4 | Cn1ncc2cc(Nc3n[nH]c4cccnc34)cnc21 [Example 151, N-(1-methyl-1H-pyrazolo[3,4-b]pyridin-5-yl)-1H-pyrazolo[4,3-b]pyridin-3-amine] | 582 nM
5 | Cn1ncc2ncc(Nc3n[nH]c4nccnc34)cc21 [Example 148, N-(1-methyl-1H-pyrazolo[4,3-b]pyridin-6-yl)-1H-pyrazolo[3,4-b]pyrazin-3-amine] | 3530 nM
6 | Cn1nc(OC2CCOCC2)c2ccc(Nc3n[nH]c4cccnc34)cc21 [Example 225, N-(1-methyl-3-((tetrahydro-2H-pyran-4-yl)oxy)-1H-indazol-6-yl)-1H-pyrazolo[4,3-b]pyridin-3-amine] | 46 nM
7 | Cn1nc(C(=O)NCCS(C)(=O)=O)c2ccc(Nc3n[nH]c4cccnc34)cc21 [Example 159, 1-methyl-N-(2-methylsulfonylethyl)-6-(1H-pyrazolo[4,3-b]pyridin-3-ylamino)indazole-3-carboxamide] | 3940 nM
8 | Cn1ncc2ncc(Nc3n[nH]c4cccnc34)cc21 [Example 147, N-(1-methyl-1H-pyrazolo[4,3-b]pyridin-6-yl)-1H-pyrazolo[4,3-b]pyridin-3-amine] | 1260 nM
9 | c1cnc2c(Nc3cnc4cnn(CC5CCC5)c4c3)n[nH]c2c1 [Example 142, N-(1-(cyclobutylmethyl)-1H-pyrazolo[4,3-b]pyridin-6-yl)-1H-pyrazolo[4,3-b]pyridin-3-amine] | > 10000 nM
10 | Cc1nn(C(C)C)c2ncc(Nc3n[nH]c4cccnc34)cc12 [Example 270, N-(1-isopropyl-3-methyl-1H-pyrazolo[3,4-b]pyridin-5-yl)-1H-pyrazolo[4,3-b]pyridin-3-amine] | > 30000 nM
11 | [2H]C([2H])(C)Oc1nn(C)c2cc(Nc3n[nH]c4cccnc34)ccc12 [Example 241, N-(3-(ethoxy-1,1-d2)-1-methyl-1H-indazol-6-yl)-1H-pyrazolo[4,3-b]pyridin-3-amine] | 356 nM
12 | Cn1nc(C(=O)N2CCC(F)(F)C2)c2ccc(Nc3n[nH]c4cccnc34)cc21 [Example 172, (3,3-difluoropyrrolidin-1-yl)-[1-methyl-6-(1H-pyrazolo[4,3-b]pyridin-3-ylamino)indazol-3-yl]methanone] | 289 nM
13 | Cc1cc(Cn2nc(C)c3cc(Nc4n[nH]c5cccnc45)ccc32)no1 [Example 76, N-(3-methyl-1-((5-methylisoxazol-3-yl)methyl)-1H-indazol-5-yl)-1H-pyrazolo[4,3-b]pyridin-3-amine] | 51 nM
14 | Cc1nn(C2CCC2)c2ccc(Nc3n[nH]c4cccnc34)cc12 [Example 107, N-(1-cyclobutyl-3-methyl-1H-indazol-5-yl)-1H-pyrazolo[4,3-b]pyridin-3-amine] | 374 nM
15 | CC(C)n1ncc2cc(Nc3n[nH]c4cccnc34)cnc21 [Example 152, N-(1-isopropyl-1H-pyrazolo[3,4-b]pyridin-5-yl)-1H-pyrazolo[4,3-b]pyridin-3-amine] | 371 nM
16 | Cn1nc(OC2COC2)c2ccc(Nc3n[nH]c4cccnc34)cc21 [Example 216, N-[1-methyl-3-(oxetan-3-yloxy)indazol-6-yl]-1H-pyrazolo[4,3-b]pyridin-3-amine] | 629 nM
17 | Cc1c2cc(Nc3n[nH]c4cccnc34)ccc2nn1C(C)C [Example 59, N-(2-isopropyl-3-methyl-2H-indazol-5-yl)-1H-pyrazolo[4,3-b]pyridin-3-amine] | > 10000 nM

Row | Structure (SMILES) | EC50
18 | Cc1nn(CC2CC(c3ncccc3F)=NO2)c2ccc(Nc3n[nH]c4cccnc34)cc12 (stereo not drawn) [Example 115, N-(1-((3-(3-fluoropyridin-2-yl)-4,5-dihydroisoxazol-5-yl)methyl)-3-methyl-1H-indazol-5-yl)-1H-pyrazolo[4,3-b]pyridin-3-amine] | 135 nM
19 | [2H]C([2H])([2H])n1nc(C)c2cc(Nc3n[nH]c4cccnc34)ccc21 [Example 123, N-(3-methyl-1-(methyl-d3)-1H-indazol-5-yl)-1H-pyrazolo[4,3-b]pyridin-3-amine] | 218 nM
20 | Cn1nc(OCCN2CCOCC2)c2c(Cl)cc(Nc3n[nH]c4cccnc34)cc21 [Example 209, N-[4-chloro-1-methyl-3-(2-morpholinoethoxy)indazol-6-yl]-1H-pyrazolo[4,3-b]pyridin-3-amine] | 322 nM
21 | Cn1ncc2cc(Nc3n[nH]c4c3CCCC4)ccc21 [Example 57, 1-methyl-N-(4,5,6,7-tetrahydro-1H-indazol-3-yl)-1H-indazol-5-amine] | > 10000 nM
22 | Cn1cc2c(Cl)cc(Nc3n[nH]c4nccnc34)cc2n1 [Example 10, N-(4-chloro-2-methyl-2H-indazol-6-yl)-1H-pyrazolo[3,4-b]pyrazin-3-amine] | 515 nM
23 | [2H]C([2H])([2H])n1nc(C2CC2)c2ccc(Nc3n[nH]c4nccnc34)cc21 [Example 22, N-(3-cyclopropyl-1-(methyl-d3)-1H-indazol-6-yl)-1H-pyrazolo[3,4-b]pyrazin-3-amine] | 10 nM
24 | Cn1nc(C2CC2)c2ccc(Nc3n[nH]c4ccccc34)cc21 [Example 12, N-(3-cyclopropyl-1-methyl-1H-indazol-6-yl)-1H-indazol-3-amine] | 128 nM
25 | c1cnc2c(Nc3ccc4nn(CC5CCC5)cc4c3)n[nH]c2c1 [Example 89, N-(2-(cyclobutylmethyl)-2H-indazol-5-yl)-1H-pyrazolo[4,3-b]pyridin-3-amine] | > 10000 nM
26 | Cn1nc(OCc2ccncc2)c2ccc(Nc3n[nH]c4cccnc34)cc21 [Example 238, N-(1-methyl-3-(pyridin-4-ylmethoxy)-1H-indazol-6-yl)-1H-pyrazolo[4,3-b]pyridin-3-amine] | 65.8 nM
27 | Cc1cc(Cn2nc(C)c3cc(Nc4n[nH]c5nccnc45)ccc32)no1 [Example 69, N-(3-methyl-1-((5-methylisoxazol-3-yl)methyl)-1H-indazol-5-yl)-1H-pyrazolo[3,4-b]pyrazin-3-amine] | 145 nM
28 | Cn1nc(C2CC2)c2ccc(Nc3n[nH]c4ncccc34)cc21 [Example 13, N-(3-cyclopropyl-1-methyl-1H-indazol-6-yl)-1H-pyrazolo[3,4-b]pyridin-3-amine] | 43 nM
29 | Cc1nn(C(C)C)c2ncc(Nc3n[nH]c4ncccc34)cc12 [Example 267, N-(1-isopropyl-3-methyl-1H-pyrazolo[3,4-b]pyridin-5-yl)-1H-pyrazolo[3,4-b]pyridin-3-amine] | > 10000 nM
30 | Cn1nc(C#N)c2ccc(Nc3n[nH]c4cccnc34)cc21 [Example 177, 1-methyl-6-(1H-pyrazolo[4,3-b]pyridin-3-ylamino)indazole-3-carbonitrile] | 467 nM
31 | Cc1nn(C(C)C)c2cc(Nc3n[nH]c4c3CCCC4)ccc12 [Example 20, 1-isopropyl-3-methyl-N-(4,5,6,7-tetrahydro-1H-indazol-3-yl)-1H-indazol-6-amine] | > 10000 nM
32 | Cn1nc(OCC2COC2)c2ccc(Nc3n[nH]c4cccnc34)cc21 [Example 195, N-[1-methyl-3-(oxetan-3-ylmethoxy)indazol-6-yl]-1H-pyrazolo[4,3-b]pyridin-3-amine] | 96.6 nM
33 | Cn1nc(OCC(F)(F)F)c2ccc(Nc3n[nH]c4cccnc34)cc21 [Example 182, N-(1-methyl-3-(2,2,2-trifluoroethoxy)-1H-indazol-6-yl)-1H-pyrazolo[4,3-b]pyridin-3-amine] | 198 nM
